These results are taken from US7935825B2, “Arylsulfanyl and heteroarylsulfanyl derivatives for treating pain” (Allergan, Inc., priority 2001, dated 2011).

Where two headings read alike, the source gives them in different places.

One experiment has as its system receptors for PGE2. Conditions: cited from earlier work.
The next experiment deals with tactile allodynia. The experiment is described as follows: Chronic pain model: spinal nerve (L5/L6) ligation, tactile allodynia measured with von Frey hairs. It is filed as in vivo. To be noted: rats. The source says:
A model for chronic pain (in particular peripheral neuropathy such as causalgia) involves the surgical ligation of the L5 (and optionally the L6) spinal nerves on one side in experimental animals. Rats recovering from the surgery gain weight and display a level of general activity similar to that of normal rats. However, these rats develop abnormalities of the foot, wherein the hindpaw is moderately everted and the toes are held together. More importantly, the hindpaw on the side affected by the surgery appears to become sensitive to pain from low-threshold mechanical stimuli, such as that producing a faint sensation of touch in a human, within about 1 week following surgery. This sensitivity to normally non-painful touch is called “tactile allodynia” and lasts for at least two months. The response includes lifting the affected hindpaw to escape from the stimulus, licking the paw and holding it in the air for many seconds. None of these responses is normally seen in the control group.
Rats are anesthetized before surgery. The surgical site is shaved and prepared either with betadine or Novacaine. Incision is made from the thoracic vertebra Xlll down toward the sacrum. Muscle tissue is separated from the spinal vertebra (left side) at the L4-S2 levels. The L6 vertebra is located and the transverse process is carefully removed with a small rongeur to expose the L4-L6 spinal nerves. The L5 and L6 spinal nerves are isolated and tightly ligated with 6-0 silk thread. The same procedure is done on the right side as a control, except no ligation of the spinal nerves is performed.
A complete hemostasis is confirmed, then the wounds are sutured. A small amount of antibiotic ointment is applied to the incised area, and the rat is transferred to the recovery plastic cage under a regulated heat-temperature lamp. On the day of the experiment, at least seven days after the surgery, six rats per test group are administered the test drugs by intraperitoneal (i.p.) injection or oral gavage. For i.p. injection, the compounds are formulated in approximately 50% DMSO and given in a volume of 1 ml/kg body weight. The compound of Example 7 was tested at doses ranging between 30 and 3000 ng/kg. A volume equal to 1 ml/kg body weight of an appropriate concentration (i.e.. 1 mg/ml for a 1 mg/kg dose) of the compound of Example 7 formulated in approximately 50% DMSO was injected using an 18-gauge, 3-inch gavage needle that is slowly inserted through the esophagus into the stomach.
Tactile allodynia is measured prior to and 30 minutes after drug administration using von Frey hairs that are a series of fine hairs with incremental differences in stiffness. Rats are placed in a plastic cage with a wire mesh bottom and allowed to acclimate for approximately 30 minutes. The von Frey hairs are applied perpendicularly through the mesh to the mid-plantar region of the rats' hindpaw with sufficient force to cause slight buckling and held for 6-8 seconds. The applied force has been calculated to range from 0.41 to 15.1 grams. If the paw is sharply withdrawn, it is considered a positive response. A normal animal will not respond to stimuli in this range, but a surgically ligated paw will be withdrawn in response to a 1-2 gram hair. The 50% paw withdrawal threshold is determined using the method of Dixon, W. J., Ann. Rev. Pharmacol. Toxicol. 20:441-462 (1980). The post-drug threshold is compared to the pre-drug threshold and the percent reversal of tactile sensitivity is calculated based on a normal threshold of 15.1 grams. […] Compared to a saline solution, this compound reversed the allodynic pain by 25% at an i.p. dose of 100 ng/kg, 60% at 300 ng/kg, 90% at […] and 92% at 3000 ng/kg.

Setting [1] is: i.p. dose of 100 ng/kg, 30 minutes after drug administration.
Setting [2] is: i.p. dose of 300 ng/kg, 30 minutes after drug administration.

In the case of `CC(=O)NNC(=O)N1Cc2ccccc2Oc2ccc(Cl)cc21` [SC-19220], the “effect on PGE2 action in tissue” value with receptors for PGE2 (cat trachea or chick ileum) is recorded as “not on other tissues”; in the experiment on receptors for PGE2 (guinea pig ileum or dog fundus), “blocks the effect of PGE2”.

For `CCN(Cc1cc(Br)ccc1OCc1ccccc1)c1ccc(C(=O)O)cn1` [6-[(2-Benzyloxy-5-bromobenzyl)ethylamino]nicotinic acid], the “reversal of allodynic pain (percent reversal of tactile sensitivity)” value came out at 10% with tactile allodynia (i.p. dose of 30 ng/kg, 30 minutes after drug administration); 50% in the experiment with tactile allodynia (setting [1]); 55% in the experiment with tactile allodynia (setting [2]); 60% with tactile allodynia (i.p., dose figure not printed ("at ng/kg")).

Regarding `CCN(Cc1ccccc1SCc1ccccc1)c1ccc(C(=O)O)cn1` [Example 7, 6-[(2-Benzylsulfanylbenzyl)ethylamino]nicotinic acid], in the experiment on tactile allodynia (doses between 30 and 3000 ng/kg), the “response to the tactile stimuli that indicate tactile allodynia” value is “able to reduce the response to the tactile stimuli”. Also, the “reversal of allodynic pain (percent reversal of tactile sensitivity)” value was determined as 25% in the experiment on tactile allodynia (setting [1]); 60% with tactile allodynia (setting [2]); 92% in the experiment with tactile allodynia (i.p. dose of 3000 ng/kg, 30 minutes after drug administration); 90% with tactile allodynia (i.p. dose printed as 100 mg/kg, 30 minutes after drug administration).
